Values quoted from earlier work, collected in US12319654B2, “Inert nanocapsules” (THE UNIVERSITY COURT OF THE UNIVERSITY OF EDINBURGH, priority 2018, dated 2025).

Settings: free anion

- Clearance time: ca. 30 mins
Structure (SMILES): [O]=[99Tc](=[O])(=[O])[O-] [^99mTcO4^−]
